Columns and labels:
Type in all cases: in vivo
[1] = system: Amaranthus retroflexus (AMARE); experiment: Herbicidal pre-emergence action, AMARE; conditions: 1280 g/ha, visual grading after ca. 3 weeks vs untreated controls (Table A11)
From the text: (§1) Seeds of mono- and dicotyledonous weed plants were sown in plastic pots (double sowings with one species of mono- and one species of dicotyledonous weed plants per pot), in sandy loam, and covered with soil. The compounds according to the invention, formulated in the form of wettable powders (WP) or as emulsifiable concentrates (EC), were applied to the surface of the covering soil as an aqueous suspension or as an emulsion, with the addition of 0.5% of an additive, at an application rate of 600 litres of water per hectare (converted). Following treatment, the pots were placed in a greenhouse and kept under optimum growth conditions for the test plants. The visual grading of the damage to the test plants is carried out after ca. 3 weeks in comparison to untreated controls (herbicidal effect in percent (%): 100% effect=plants have died, 0% effect=as control plants). Seeds of mono- and dicotyledonous weed plants were sown in plastic pots (double sowings with one species of mono- and one species of dicotyledonous weed plants per pot), in sandy loam, and covered with soil. The compounds according to the invention, formulated in the form of wettable powders (WP) or as emulsifiable concentrates (EC), were applied to the surface of the covering soil as an aqueous suspension or as an emulsion, with the addition of 0.5% of an additive, at an application rate of 600 litres of water per hectare (converted). Following treatment, the pots were placed in a greenhouse and kept under optimum growth conditions for the test plants. The visual grading of the damage to the test plants is carried out after ca. 3 weeks in comparison to untreated controls (herbicidal effect in percent (%): 100% effect=plants have died, 0% effect=as control plants).

[2] = system: Lolium rigidum (LOLRI); experiment: Herbicidal pre-emergence action, LOLRI
From the text: as §1

[3] = system: Poa annua (POAAN); experiment: Herbicidal pre-emergence action, POAAN
From the text: as §1

[4] = system: Amaranthus retroflexus (AMARE); experiment: Herbicidal post-emergence action, AMARE
From the text: (§2) Seeds of mono- and dicotyledonous weed plants were sown in plastic pots (double sowings with one species of mono- and one species of dicotyledonous weed plants per pot), in sandy loam, covered with soil and grown under controlled growth conditions. 2 to 3 weeks after sowing, the test plants were sprayed in the single-leaf stage. The compounds according to the invention, formulated in the form of wettable powders (WP) or as emulsifiable concentrates (EC), were sprayed onto the green plant parts as an aqueous suspension or as an emulsion, with the addition of 0.5% of an additive, at an application rate of 600 litres of water per hectare (converted). The test plants were placed in the greenhouse for ca. 3 weeks under optimum growth conditions, and then the effect of the preparations is assessed visually in comparison with untreated controls (herbicidal effect in percent (%): 100% effect=plants have died, 0% effect=as control plants). […]

[5] = system: Kochia scoparia (KCHSC); experiment: Herbicidal pre-emergence action, KCHSC; conditions: 1280 g/ha, visual grading after ca. 3 weeks vs untreated controls (Table A4)
From the text: as §1

[6] = system: Digitaria sanguinalis (DIGSA); experiment: Herbicidal post-emergence action, DIGSA; conditions: 1280 g/ha, assessed visually after ca. 3 weeks vs untreated controls (Table B12)
From the text: (§3) Seeds of mono- and dicotyledonous weed plants were sown in plastic pots (double sowings with one species of mono- and one species of dicotyledonous weed plants per pot), in sandy loam, covered with soil and grown under controlled growth conditions. 2 to 3 weeks after sowing, the test plants were sprayed in the single-leaf stage. The compounds according to the invention, formulated in the form of wettable powders (WP) or as emulsifiable concentrates (EC), were sprayed onto the green plant parts as an aqueous suspension or as an emulsion, with the addition of 0.5% of an additive, at an application rate of 600 litres of water per hectare (converted). The test plants were placed in the greenhouse for ca. 3 weeks under optimum growth conditions, and then the effect of the preparations is assessed visually in comparison with untreated controls (herbicidal effect in percent (%): 100% effect=plants have died, 0% effect=as control plants).

[7] = system: Kochia scoparia (KCHSC); experiment: Herbicidal post-emergence action, KCHSC
From the text: as §2

[8] = system: Setaria viridis (SETVI); experiment: Herbicidal pre-emergence action, SETVI; conditions: 1280 g/ha, visual grading after ca. 3 weeks vs untreated controls (Table A8)
From the text: as §1

[9] = system: Veronica persica (VERPE); experiment: Herbicidal post-emergence action, VERPE; conditions: 1280 g/ha, assessed visually after ca. 3 weeks vs untreated controls (Table B10)
From the text: as §2

[10] = system: Stellaria media (STEME); experiment: Herbicidal pre-emergence action, STEME
From the text: as §1

[11] = system: Abutilon theophrasti (ABUTH); experiment: Herbicidal post-emergence action, ABUTH; conditions: 1280 g/ha, assessed visually after ca. 3 weeks vs untreated controls (Table B1)
From the text: as §3

[12] = system: Poa annua (POAAN); experiment: Herbicidal post-emergence action, POAAN; conditions: 1280 g/ha, assessed visually after ca. 3 weeks vs untreated controls (Table B8)
From the text: as §2

[13] = system: Matricaria inodora (MATIN); experiment: Herbicidal pre-emergence action, MATIN
From the text: as §1

[14] = system: Stellaria media (STEME); experiment: Herbicidal post-emergence action, STEME
From the text: as §2

O=C(Nc1ncns1)c1c(C2CC2)ccnc1C(F)(F)F [Example I-006] was tested, and the “herbicidal effect in percent, AMARE” value [1] was 90%, the “herbicidal effect in percent, LOLRI” value ([2]; 320 g/ha, visual grading after ca. 3 weeks vs untreated controls (Table C2)) was 90% and the “herbicidal effect in percent, LOLRI” value ([2]; 1280 g/ha, visual grading after ca. 3 weeks vs untreated controls (Table A5)) was 90%. For the same compound, the “herbicidal effect in percent, POAAN” value ([3]; 320 g/ha, visual grading after ca. 3 weeks vs untreated controls (Table C4)) was 90%, the “herbicidal effect in percent, POAAN” value ([3]; 1280 g/ha, visual grading after ca. 3 weeks vs untreated controls (Table A7)) was 90% and the “herbicidal effect in percent, AMARE” value ([4]; 320 g/ha, assessed visually after ca. 3 weeks vs untreated controls (Table D6)) was 90%. For the same compound, the “herbicidal effect in percent, AMARE” value ([4]; 1280 g/ha, assessed visually after ca. 3 weeks vs untreated controls (Table B11)) was 100%, the “herbicidal effect in percent, KCHSC” value [5] was 90% and the “herbicidal effect in percent, DIGSA” value [6] was 90%. The “herbicidal effect in percent, KCHSC” value ([7]; 1280 g/ha, assessed visually after ca. 3 weeks vs untreated controls (Table B4)) was 100%, the “herbicidal effect in percent, KCHSC” value ([7]; dosage printed 1280 g/ha in Table D1, assessed visually after ca. 3 weeks vs untreated controls) was 90% and the “herbicidal effect in percent, SETVI” value [8] was 90%. The “herbicidal effect in percent, VERPE” value [9] was 90%, the “herbicidal effect in percent, STEME” value ([10]; 320 g/ha, visual grading after ca. 3 weeks vs untreated controls (Table C6)) was 100% and the “herbicidal effect in percent, STEME” value ([10]; 1280 g/ha, visual grading after ca. 3 weeks vs untreated controls (Table A9)) was 100%. The “herbicidal effect in percent, ABUTH” value [11] was 90%, the “herbicidal effect in percent, POAAN” value [12] was 90% and the “herbicidal effect in percent, MATIN” value ([13]; 320 g/ha, visual grading after ca. 3 weeks vs untreated controls (Table C3)) was 90%. The “herbicidal effect in percent, MATIN” value ([13]; 1280 g/ha, visual grading after ca. 3 weeks vs untreated controls (Table A6)) was 100%, the “herbicidal effect in percent, STEME” value ([14]; 1280 g/ha, assessed visually after ca. 3 weeks vs untreated controls (Table B9)) was 100% and the “herbicidal effect in percent, STEME” value ([14]; dosage printed 1280 g/ha in Table D4, assessed visually after ca. 3 weeks vs untreated controls) was 90%.
